One compound from article PMC5665533, “Generation of G protein-coupled receptor antibodies differentially sensitive to conformational states” (PLoS ONE, 2017) can be followed below.

For this assay, the target named is T1, dopamine D1 receptor (D1R) (Homo sapiens, UniProt P21728).
T1 construct: gene DRD1; endogenous full-length receptor in SK-N-SH neuroblastoma cells
The experiment in a line: ELISA, agonist-induced receptor recognition by anti-D1R antibody, SK-N-SH cells. The note with it: 1 μM agonist; endogenous receptor. Type of assay: cell-based. A general note: ELISA stands for enzyme-linked immunosorbent assay.

T1 sequence (P21728 whole entry): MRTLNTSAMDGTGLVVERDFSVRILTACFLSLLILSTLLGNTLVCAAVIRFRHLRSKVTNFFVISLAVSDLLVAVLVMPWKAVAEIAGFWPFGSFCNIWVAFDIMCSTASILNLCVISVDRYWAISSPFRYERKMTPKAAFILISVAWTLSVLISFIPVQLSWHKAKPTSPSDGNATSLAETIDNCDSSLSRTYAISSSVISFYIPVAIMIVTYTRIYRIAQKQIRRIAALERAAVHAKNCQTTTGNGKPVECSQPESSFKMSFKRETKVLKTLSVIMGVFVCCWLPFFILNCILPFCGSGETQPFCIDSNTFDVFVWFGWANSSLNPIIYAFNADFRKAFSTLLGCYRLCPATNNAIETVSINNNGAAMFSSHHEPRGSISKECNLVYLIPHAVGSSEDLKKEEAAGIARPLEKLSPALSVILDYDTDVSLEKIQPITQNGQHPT

Regarding `C=CCN1CCc2c(cc(O)c(O)c2Cl)C(c2cccc(C)c2)C1` (stereo not shown) [SKF83822], the “ELISA, agonist-induced receptor recognition by anti-D1R antibody, SK-N-SH cells” value is “treatment with the dopamine D1 receptor (D1R) agonist, SKF83822”.
